Measured values published in patent publication US20250163104A1, “MACROCYCLIC IMMUNOMODULATORS” (priority 2021, published 2025).
*1 amine or outer side, *2 acyl side, *3 side chain or, on linkers, in order; H or OH if unused. Where a SMILES comes first, the peptide text is derived from it. Bridges are numbered along the chain shown (N, C = ends). [ ]: non-standard residue; d: D form. The star is where a group is joined. ξ: configuration not given here. Phe(4-NO2) = N[C@@H](Cc1ccc([N+](=O)[O-])cc1)C(=O)O; Phe(3,4-Cl2) = N[C@@H](Cc1ccc(Cl)c(Cl)c1)C(=O)O; Phe(4-COOH) = N[C@@H](Cc1ccc(C(=O)O)cc1)C(=O)O; X5 = O=C([C@H](Cc1ccc2ncccc2c1)N[*:1])[*:2]; Bip = N[C@@H](Cc1ccc(-c2ccccc2)cc1)C(=O)O; Phe(3-Me) = Cc1cccc(C[C@H](N)C(=O)O)c1; Val(3-OH) = CC(C)(O)[C@H](N)C(=O)O; ξW = NC(Cc1c[nH]c2ccccc12)C(=O)O; 4Pal = N[C@@H](Cc1ccncc1)C(=O)O; Cha = N[C@@H](CC1CCCCC1)C(=O)O; Cit = NC(=O)NCCC[C@H](N)C(=O)O; Ile(3ξ) = CCC(C)[C@H](N)C(=O)O; ξCit = NC(=O)NCCCC(N)C(=O)O; Carboxymethyl = O=C(O)C*; Nle = CCCC[C@H](N)C(=O)O; Orn = NCCC[C@H](N)C(=O)O; Pra = C#CC[C@H](N)C(=O)O; Dab = NCC[C@H](N)C(=O)O; Dap = NC[C@H](N)C(=O)O

Biological target: T1, human PD-1 / PD-L1-Ig binding on Jurkat cell line over-expressing human PD-1 (Jurkat-PD-1) (Homo sapiens, UniProt Q15116)
T1 construct: expressed in transfected cells; host or cells: Jurkat
Assay: Jurkat-PD-1 Cell Binding High-Content Screening Assay (CBA)
Assay type: cell-based
Details: Jurkat HPD1_PDL1 IC50, Jurkat-PD-1 cells, PE-labeled PD-L1-Ig 20 nM final
Method in brief: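 Jurkat-hPD-1 cells in DMEM with 10% fetal calf serum receive test compound and are held at 37° C for 2 h. PE-labeled PD-L1-Ig is added at 20 nM final and left for 1 hour. Cells are then fixed and Hoechst-stained, and binding is measured by imaging.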

T1 sequence (Q15116 25-288): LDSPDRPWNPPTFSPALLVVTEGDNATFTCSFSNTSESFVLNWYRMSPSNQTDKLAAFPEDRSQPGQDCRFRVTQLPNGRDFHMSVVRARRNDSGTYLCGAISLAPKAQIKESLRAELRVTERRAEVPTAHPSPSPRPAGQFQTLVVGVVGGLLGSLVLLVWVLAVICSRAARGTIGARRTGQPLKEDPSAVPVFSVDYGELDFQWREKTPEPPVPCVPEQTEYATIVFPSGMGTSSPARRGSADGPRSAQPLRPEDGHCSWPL

**Q.** How did the IC50 turn out when `Cc1cccc(C[C@@H]2NC(=O)[C@H](CC(=O)O)NC(=O)[C@H](Cc3ccc(C(=O)O)cc3)NC(=O)[C@H](Cc3ccncc3)NC(=O)CSC[C@@H](C(=O)N[C@@H](C)C(N)=O)NC(=O)[C@H]([C@@H](C)O)NC(=O)[C@H](C(C)C)NC(=O)[C@H](CC3CCCCC3)NC(=O)[C@H](Cc3c[nH]cn3)NC(=O)[C@@H](CC(C)C)NC(=O)[C@H](CCCN)NC(=O)[C@H](C(C)C)NC(=O)[C@H](Cc3ccc(-c4ccccc4)cc3)NC(=O)[C@H](C(C)C)NC2=O)c1` [Compound 1581] was run?
**A.** 22.4 nM

Same assay, conditions: Jurkat-PD-1 cells, PE-labeled PD-L1-Ig 20 nM final; read-out: Jurkat HPD1_PDL1 IC50

**Q.** For `CC[C@H](C)[C@@H]1NC(=O)[C@H](Cc2ccc(-c3ccccc3)cc2)NC(=O)[C@H](C(C)C)NC(=O)[C@H](Cc2c[nH]c3ccccc23)NC(=O)[C@H](CC(=O)O)NC(=O)[C@H](Cc2ccc(OCC(=O)O)cc2)NC(=O)[C@H](Cc2ccc(OCC(=O)O)cc2)NC(=O)CSC[C@@H](C(=O)N[C@@H](C)C(N)=O)NC(=O)[C@H]([C@@H](C)O)NC(=O)[C@H](C(C)C)NC(=O)[C@H](Cc2ccc(O)cc2)NC(=O)[C@H](CCN)NC(=O)[C@@H](CC(C)C)NC(=O)[C@H](CCCN)NC1=O` [Compound 1680] ({CH2CO}-Y(Carboxymethyl)Y(Carboxymethyl)DWV[Bip]I[Orn][dL][Dab]YVTCA-NH2; thioether N-14), which IC50 is on record?
**A.** 71.7 nM

**Q.** For `Cc1cccc(C[C@@H]2NC(=O)[C@H](CC(=O)O)NC(=O)[C@H](Cc3ccc(C(=O)O)cc3)NC(=O)[C@H](Cc3ccncc3)NC(=O)CSC[C@@H](C(=O)N[C@@H](CCN)C(N)=O)NC(=O)[C@H](CO)NC(=O)[C@H](C(C)(C)O)NC(=O)[C@H](CC3CCCCC3)NC(=O)[C@H](CCN)NC(=O)[C@@H](CC(C)C)NC(=O)[C@H](CCCN)NC(=O)[C@H](Cc3ccc(OCC(=O)O)cc3)NC(=O)[C@H](Cc3ccc(-c4ccccc4)cc3)NC(=O)[C@H](Cc3ccc(OCC(=O)O)cc3)NC2=O)c1` [Compound 2622] ({CH2CO}-[4Pal][Phe(4-COOH)]D[Phe(3-Me)]Y(Carboxymethyl)[Bip]Y(Carboxymethyl)[Orn][dL][Dab][Cha][Val(3-OH)]SC[Dab]-NH2; thioether N-14), which IC50 is on record?
**A.** 2.7 nM

**Q.** How did the IC50 turn out when `CC(C)C[C@H]1NC(=O)[C@H](CCCN)NC(=O)[C@H](CCC(=O)O)NC(=O)[C@H](Cc2ccc(-c3ccccc3)cc2)NC(=O)[C@H](C(C)C)NC(=O)[C@H](Cc2c[nH]c3ccccc23)NC(=O)[C@H](CC(=O)O)NC(=O)[C@H](Cc2ccc(OCC(=O)O)cc2)NC(=O)[C@H](CN)NC(=O)CSC[C@@H](C(=O)N[C@@H](C)C(N)=O)NC(=O)[C@H]([C@@H](C)O)NC(=O)[C@H](C(C)C)NC(=O)[C@H](Cc2ccc(Cl)c(Cl)c2)NC(=O)[C@H](CCN)NC1=O` [Compound 1481] ({CH2CO}-[Dap]Y(Carboxymethyl)DWV[Bip]E[Orn][dL][Dab][Phe(3,4-Cl2)]VTCA-NH2; thioether N-14) was run?
**A.** 67.2 nM

**Q.** `CCCC[C@@H]1NC(=O)[C@H](CCN)NC(=O)[C@@H](CC(C)C)NC(=O)[C@H](CCCN)NC(=O)[C@H](CCCNC(N)=O)NC(=O)[C@H](Cc2ccc(-c3ccccc3)cc2)NC(=O)[C@H](CC(C)C)NC(=O)[C@H](Cc2cccc(C)c2)NC(=O)[C@H](CC(=O)O)NC(=O)[C@H](Cc2ccc(OCC(=O)O)cc2)NC(=O)[C@H](CN)NC(=O)CSC[C@@H](C(=O)N[C@@H](C)C(N)=O)NC(=O)[C@H]([C@@H](C)O)NC(=O)[C@H](C(C)C)NC1=O` [Compound 1295] ({CH2CO}-[Dap]Y(Carboxymethyl)D[Phe(3-Me)]L[Bip][Cit][Orn][dL][Dab][Nle]VTCA-NH2; thioether N-14) was tested. Which IC50 did it give?
**A.** 9.8 nM

**Q.** For `CC(C)[C@@H]1NC(=O)[C@H](Cc2c[nH]c3ccccc23)NC(=O)[C@H](CC(=O)O)NC(=O)[C@H](Cc2ccc(C(=O)O)cc2)NC(=O)[C@H](Cc2ccncc2)NC(=O)CSC[C@@H](C(=O)N[C@@H](C)C(N)=O)NC(=O)[C@H]([C@@H](C)O)NC(=O)[C@H](C(C)C)NC(=O)[C@H](CC2CCCCC2)NC(=O)[C@H](CCN)NC(=O)[C@@H](Cc2ccc(O)cc2)NC(=O)[C@H](CCCN)NC(=O)[C@H](CCC(=O)O)NC(=O)[C@H](Cc2ccc(-c3ccccc3)cc2)NC1=O` [Compound 1445] ({CH2CO}-[4Pal][Phe(4-COOH)]DWV[Bip]E[Orn][dY][Dab][Cha]VTCA-NH2; thioether N-14), which IC50 is on record?
**A.** 19.5 nM

**Q.** How did the IC50 turn out when `CCC(C)[C@@H]1NC(=O)[C@H](Cc2ccc(-c3ccccc3)cc2)NC(=O)[C@H](C(C)C)NC(=O)[C@H](Cc2cccc(C)c2)NC(=O)[C@H](CC(=O)O)NC(=O)[C@H](Cc2ccc(OCC(=O)O)cc2)NC(=O)[C@H](CN)NC(=O)CSC[C@@H](C(=O)N[C@@H](C)C(N)=O)NC(=O)[C@H](CO)NC(=O)[C@H](C(C)C)NC(=O)[C@H](CC2CCCCC2)NC(=O)[C@H](CCN)NC(=O)[C@@H](CC(C)C)NC(=O)[C@H](CCCN)NC1=O` (some centres unmarked) [Compound 2533] was run?
**A.** 43.7 nM

**Q.** How did the IC50 turn out when `CC(C)C[C@@H]1NC(=O)C(Cc2c[nH]c3ccccc23)NC(=O)[C@H](CC(=O)O)NC(=O)[C@H](Cc2ccc(O)cc2)NC(=O)[C@H](Cc2ccccc2)NC(=O)CSC[C@@H](C(=O)NCC(N)=O)NC(=O)[C@H]([C@@H](C)O)NC(=O)[C@H](C(C)C)NC(=O)[C@H](CC(C)C)NC(=O)[C@H](CC(N)=O)NC(=O)[C@@H](CC(C)C)NC(=O)[C@H](CCN)NC(=O)[C@H](C(C)C)NC(=O)[C@H](Cc2ccc(-c3ccccc3)cc2)NC1=O` (stereo partly drawn) [Compound 1215] ({CH2CO}-FYD[ξW]L[Bip]V[Dab][dL]NLVTCG-NH2; thioether N-14) was run?
**A.** 47 nM

**Q.** How did the IC50 turn out when `CCC(C)[C@@H]1NC(=O)[C@H](Cc2ccc(-c3ccccc3)cc2)NC(=O)[C@H](Cc2ccc(OCC(=O)O)cc2)NC(=O)[C@H](Cc2cccc(C)c2)NC(=O)[C@H](CC(=O)O)NC(=O)[C@H](Cc2ccc(C(=O)O)cc2)NC(=O)[C@H](Cc2ccncc2)NC(=O)CSC[C@@H](C(=O)N[C@@H](CC(N)=O)C(N)=O)NC(=O)[C@H]([C@@H](C)O)NC(=O)[C@H](C(C)C)NC(=O)[C@H](CC2CCCCC2)NC(=O)[C@H](CCN)NC(=O)[C@@H](CC(C)C)NC(=O)[C@H](CCCN)NC1=O` (stereo partly drawn) [Compound 2315] ({CH2CO}-[4Pal][Phe(4-COOH)]D[Phe(3-Me)]Y(Carboxymethyl)[Bip][Ile(3ξ)][Orn][dL][Dab][Cha]VTCN-NH2; thioether N-14) was run?
**A.** 33.1 nM

**Q.** How did the IC50 turn out when `C#CC[C@H](NC(=O)[C@H](CCN)NC(=O)[C@@H]1CSCC(=O)N[C@@H](CCN)C(=O)N[C@@H](Cc2ccc(C(=O)O)cc2)C(=O)N[C@@H](CC(=O)O)C(=O)N[C@@H](Cc2cccc(C)c2)C(=O)N[C@@H](Cc2ccc(C(=O)O)cc2)C(=O)N[C@@H](Cc2ccc(-c3ccccc3)cc2)C(=O)N[C@@H](Cc2ccc(C(=O)O)cc2)C(=O)N[C@@H](CCCN)C(=O)N[C@H](CC(C)C)C(=O)N[C@@H](CCN)C(=O)N[C@@H](CC2CCCCC2)C(=O)N[C@@H](C(C)(C)O)C(=O)N[C@@H](CO)C(=O)N1)C(N)=O` [Compound 1865] ({CH2CO}-[Dab][Phe(4-COOH)]D[Phe(3-Me)][Phe(4-COOH)][Bip][Phe(4-COOH)][Orn][dL][Dab][Cha][Val(3-OH)]SC[Dab][Pra]-NH2; thioether N-14) was run?
**A.** 12 nM

**Q.** For `C#CC[C@H](NC(=O)[C@@H]1CSCC(=O)N[C@@H](CCN)C(=O)N[C@@H](Cc2ccc(OCC(=O)O)cc2)C(=O)N[C@@H](CC(=O)O)C(=O)N[C@@H](Cc2cccc(C)c2)C(=O)N[C@@H](Cc2ccc(OCC(=O)O)cc2)C(=O)N[C@@H](Cc2ccc(-c3ccccc3)cc2)C(=O)N[C@@H](Cc2ccc(OCC(=O)O)cc2)C(=O)N[C@@H](CCCN)C(=O)N[C@H](CC(C)C)C(=O)N[C@@H](CCN)C(=O)N[C@@H](CC2CCCCC2)C(=O)N[C@@H](C(C)(C)O)C(=O)N[C@@H](CCCN)C(=O)N1)C(=O)O` [Compound 2686] ({CH2CO}-[Dab]Y(Carboxymethyl)D[Phe(3-Me)]Y(Carboxymethyl)[Bip]Y(Carboxymethyl)[Orn][dL][Dab][Cha][Val(3-OH)][Orn]C[Pra]-OH; thioether N-14), which IC50 is on record?
**A.** 33.3 nM

**Q.** Which IC50 does the source give for `C#CC[C@H](NC(=O)[C@H](CCN)NC(=O)[C@@H]1CSCC(=O)N[C@@H](CN)C(=O)N[C@@H](Cc2ccc(OCC(=O)O)cc2)C(=O)N[C@@H](CC(=O)O)C(=O)N[C@@H](Cc2cccc(C)c2)C(=O)N[C@@H](C(C)C)C(=O)N[C@@H](Cc2ccc(-c3ccccc3)cc2)C(=O)NC(CCCNC(N)=O)C(=O)N[C@@H](CCCN)C(=O)N[C@H](CC(C)C)C(=O)N[C@@H](CCN)C(=O)N[C@@H](CC2CCCCC2)C(=O)N[C@@H](C(C)C)C(=O)N[C@@H]([C@@H](C)O)C(=O)N1)C(=O)O` (stereo partly drawn) [Compound 2258] ({CH2CO}-[Dap]Y(Carboxymethyl)D[Phe(3-Me)]V[Bip][ξCit][Orn][dL][Dab][Cha]VTC[Dab][Pra]-OH; thioether N-14) here?
**A.** 14.9 nM

**Q.** For `CC(C)C[C@H]1NC(=O)[C@H](CCCN)NC(=O)[C@H](CCCNC(N)=O)NC(=O)[C@H](Cc2ccc(-c3ccccc3)cc2)NC(=O)[C@H](C(C)C)NC(=O)[C@H](Cc2c[nH]c3ccccc23)NC(=O)[C@H](CC(=O)O)NC(=O)[C@H](Cc2ccc([N+](=O)[O-])cc2)NC(=O)[C@H](CN)NC(=O)CSC[C@@H](C(=O)N[C@@H](C)C(N)=O)NC(=O)[C@H]([C@@H](C)O)NC(=O)[C@H](C(C)C)NC(=O)[C@H](CC2CCCCC2)NC(=O)[C@H](CCN)NC1=O` [Compound 2110] ({CH2CO}-[Dap][Phe(4-NO2)]DWV[Bip][Cit][Orn][dL][Dab][Cha]VTCA-NH2; thioether N-14), which IC50 is on record?
**A.** 18.2 nM

**Q.** For `CC(C)C[C@H]1NC(=O)[C@H](CCCN)NC(=O)[C@H](CCC(=O)O)NC(=O)[C@H](Cc2ccc(-c3ccccc3)cc2)NC(=O)[C@H](C(C)C)NC(=O)[C@H](Cc2c[nH]c3ccccc23)NC(=O)[C@H](CC(=O)O)NC(=O)[C@H](Cc2ccc3ncccc3c2)NC(=O)[C@H](Cc2ccccc2)NC(=O)CSC[C@@H](C(=O)N[C@@H](C)C(N)=O)NC(=O)[C@H]([C@@H](C)O)NC(=O)[C@H](C(C)C)NC(=O)[C@H](CC2CCCCC2)NC(=O)[C@H](CCN)NC1=O` [Compound 2176] ({CH2CO}-F[X5]DWV[Bip]E[Orn][dL][Dab][Cha]VTCA-NH2; thioether N-14), which IC50 is on record?
**A.** 111 nM
